The values below come from article PMC6131161, “Adjunctive use of celecoxib with anti-tuberculosis drugs: evaluation in a whole-blood bactericidal activity model” (Scientific Reports, 2018).

For series [1], the system named is Mycobacterium tuberculosis (H37Rv). Put plainly: Whole-blood bactericidal activity (WBA) assay, ex vivo, blood of dosed healthy volunteers. The series is classed as cell-based. Particulars: for WBAcum(0–8) / WBAmax: mean (SD); for bactericidal activity in the WBA assay (in words): drug alone, single oral dose, over 8 hours post-dose.
The nature of series [2]: Plasma pharmacokinetics in healthy volunteers (LC-MS/MS, non-compartmental analysis). The conditions noted are these: for Cmax / Tmax / half-life / AUC(0-t): human, plasma, po; for Tmax: median (min, max); for half-life: mean (SD); for AUC(0-t): AUC(0–8).
A further series in a line: clinical. The conditions noted are these: human, in vivo, po, 10 mg/kg.
Where [3] appears, read: Celecoxib alone 400 mg single oral dose, PZA group, n = 9.
The mark [4] stands for this setting: Celecoxib alone 400 mg single oral dose, RIF group, n = 9.
Where [5] appears, read: celecoxib levels in plasma, PZA + C, celecoxib 400 mg with pyrazinamide 25 mg/kg oral, geometric mean (min, max).
The mark [6] stands for this setting: celecoxib levels in plasma, RIF + C, celecoxib 400 mg with rifampicin 10 mg/kg oral, geometric mean (min, max).
[7] abbreviates: TB drug + Celecoxib: pyrazinamide 25 mg/kg with celecoxib 400 mg oral, PZA group, n = 9.
The mark [8] stands for this setting: TB drug alone: pyrazinamide 25 mg/kg single oral dose, PZA group, n = 9.
The mark [9] stands for this setting: TB drug alone: pyrazinamide 25 mg/kg single oral dose, PZA group, n = 9, listed as PZA.
The mark [10] stands for this setting: 25 mg/kg, pyrazinamide levels in plasma, PZA alone, 25 mg/kg single oral dose, geometric mean (min, max).
[11] abbreviates: pyrazinamide levels in plasma, PZA + C, pyrazinamide 25 mg/kg with celecoxib 400 mg oral, geometric mean (min, max).
The mark [12] stands for this setting: TB drug + Celecoxib: rifampicin 10 mg/kg with celecoxib 400 mg oral, RIF group, n = 7.
The mark [13] stands for this setting: TB drug alone: rifampicin 10 mg/kg single oral dose, RIF group, n = 9.
Where [14] appears, read: TB drug alone: rifampicin 10 mg/kg single oral dose, RIF group, n = 9, listed as RIF.

Several values for one entry are separate records, joined by “and”; a condition that tells them apart may be missing. Identical values can stand only once. Entries after “also recorded” stand apart in the source; their conditions may differ.

A word on the Cmax: it is the peak of the concentration-time curve. The term Tmax denotes the time from dosing to the highest level. As a reminder, the half-life is the time needed for the level to fall by half in the phase considered. A word on the AUC(0-t): it is the area under the concentration-time curve up to a stated or last time point. With `Cc1ccc(-c2cc(C(F)(F)F)nn2-c2ccc(S(N)(=O)=O)cc2)cc1` [Celecoxib, celecoxib], the “WBAcum(0–8)” value in series [1] (setting [3]) is 0.02 (0.01) ΔlogCFU; in series [1] (Celecoxib alone 400 mg single oral dose, RIF + PZA groups combined, n = 18, cumulative over 8 h post-dose), 0.03 ± 0.01 ΔlogCFU and 0.03 (0.01) ΔlogCFU; in series [1] (setting [4]), 0.03 (0.01) ΔlogCFU. Further, the WBAmax in series [1] (setting [3]) was 0.12 (0.10) ΔlogCFU; in series [1] (Celecoxib alone 400 mg single oral dose, RIF + PZA groups combined, n = 18, up to 8 h post-dose, negative = killing), 0.14 (0.10) ΔlogCFU; in series [1] (setting [4]), 0.17 (0.09) ΔlogCFU. The “bactericidal activity in the WBA assay (in words)” value (“bactericidal activity” below) in series [1] is “no bactericidal activity; also recorded: no activity alone”. Also, in series [2] (celecoxib 400 mg co-administered with rifampicin 10 mg/kg or pyrazinamide 25 mg/kg), the “effect of celecoxib on rifampicin or pyrazinamide drug levels (in words)” value was “no significant effect”. In addition, the “Cmax and AUC(0–8hrs) of celecoxib when co-administered with the TB drugs (in words)” value in series [2] (celecoxib 400 mg with rifampicin or pyrazinamide versus alone) is “non-significant trend towards lower”. In addition, the “AUC(0–8)” value in series [2] (celecoxib levels in plasma, C alone, celecoxib 400 mg single oral dose, geometric mean (min, max)) is on record as 5.97 (2.91, 10.25) h*mg/L. In addition, the Cmax stood at 1140 ng/mL in series [2] (400 mg, celecoxib levels in plasma, C alone, celecoxib 400 mg single oral dose, geometric mean (min, max)); 760 ng/mL in series [2] (setting [5]); 890 ng/mL in series [2] (setting [6]). In addition, the Tmax in series [2] (400 mg, celecoxib levels in plasma, C alone, celecoxib 400 mg single oral dose) turned out to be 2 h; in series [2] (celecoxib levels in plasma, PZA + C, celecoxib 400 mg with pyrazinamide 25 mg/kg oral) it was 3 h; in series [2] (celecoxib levels in plasma, RIF + C, celecoxib 400 mg with rifampicin 10 mg/kg oral) it was 2 h. The half-life was 4.48 h in series [2] (400 mg, t1/2, celecoxib levels in plasma, C alone, celecoxib 400 mg single oral dose); 7.28 h in series [2] (t1/2, celecoxib levels in plasma, PZA + C, celecoxib 400 mg with pyrazinamide 25 mg/kg oral, includes 24 hour data where available); 6.65 h in series [2] (t1/2, celecoxib levels in plasma, RIF + C, celecoxib 400 mg with rifampicin 10 mg/kg oral, includes 24 hour data where available). Further, the AUC(0-t) in series [2] (setting [5]) amounted to 4230 ng·h/mL; in series [2] (setting [6]) it was 4530 ng·h/mL.
Turning to `NC(=O)c1cnccn1` [Pyrazinamide, pyrazinamide], the “WBAcum(0–8), mean difference for TB drug with and without celecoxib (95% CI)” value in series [1] (PZA group, paired data n = 9) is given as −0.01 (−0.03, 0.00) ΔlogCFU. Also, the “WBAmax, mean difference for TB drug with and without celecoxib (95% CI)” value in series [1] (PZA group, paired data n = 9) is recorded as −0.09 (−0.22, 0.04) ΔlogCFU. Besides, the “WBAcum(0–8)” value in series [1] (setting [7]) is 0.00 (0.01) ΔlogCFU; in series [1] (setting [8]), 0.01 ± 0.03 ΔlogCFU; in series [1] (setting [9]) it was 0.01 (0.03) ΔlogCFU. Moreover, the WBAmax in series [1] (setting [7]) is −0.12 (0.10) ΔlogCFU; in series [1] (setting [8]), −0.03 ± 0.23 ΔlogCFU; in series [1] (setting [9]), −0.03 (0.23) ΔlogCFU. In addition, the “bactericidal activity” value in series [1] is given as “no bactericidal activity; also recorded: appeared to be bacteriostatic”. The results for the AUC(0-t) in series [2] (setting [10]) and in series [2] (setting [11]) were 207000 ng·h/mL and 212000 ng·h/mL, respectively. Besides, the Cmax in series [2] (setting [10]) worked out at 35500 ng/mL; in series [2] (setting [11]) it was 35100 ng/mL. Besides, the Tmax in series [2] (25 mg/kg, pyrazinamide levels in plasma, PZA alone, 25 mg/kg single oral dose) worked out at 1 h; in series [2] (pyrazinamide levels in plasma, PZA + C, pyrazinamide 25 mg/kg with celecoxib 400 mg oral), 1 h. In addition, the half-life in series [2] (25 mg/kg, t1/2, pyrazinamide levels in plasma, PZA alone, 25 mg/kg single oral dose) is 11.4 h; in series [2] (t1/2, pyrazinamide levels in plasma, PZA + C, pyrazinamide 25 mg/kg with celecoxib 400 mg oral, includes 24 hour data where available), 11.2 h.
With `CO[C@H]1/C=C/O[C@@]2(C)Oc3c(C)c(O)c4c(O)c(c(/C=N/N5CCN(C)CC5)c(O)c4c3C2=O)NC(=O)/C(C)=C\C=C\[C@H](C)[C@H](O)[C@@H](C)[C@@H](O)[C@@H](C)[C@H](OC(C)=O)[C@@H]1C` [Rifampicin, rifampicin], the “WBAcum(0–8), mean difference for TB drug with and without celecoxib (95% CI)” value in series [1] (RIF group, paired data n = 7) is 0.00 (−0.02, 0.02) ΔlogCFU. For the same molecule, in series [1] (RIF group, paired data n = 7), the “WBAmax, mean difference for TB drug with and without celecoxib (95% CI)” value is −0.03 (−0.25, 0.18) ΔlogCFU. Also, the figures for the “WBAcum(0–8)” value in series [1] (setting [12]), in series [1] (setting [13]) and in series [1] (setting [14]) were −0.22 (0.03) ΔlogCFU, −0.22 ± 0.02 ΔlogCFU and −0.22 (0.02) ΔlogCFU, respectively. Besides, the WBAmax in series [1] (setting [12]) is given as −2.51 (0.23) ΔlogCFU; in series [1] (setting [13]), −2.48 ± 0.24 ΔlogCFU; in series [1] (setting [14]), −2.48 (0.24) ΔlogCFU. In addition, the “bactericidal activity” value in series [1] was “strong bactericidal activity”. For the same molecule, the AUC(0-t) in “clinical” (AUC(0–8)) was determined as 92300 ng·h/mL. Besides, in “clinical” (Cmax), the Cmax turned out to be 19300 ng/mL. The time to peak (Tmax) in the series “clinical” (Tmax) amounted to 1 h.
